Literature values, collected in patent publication US20080247957A1, “Advanced drug delivery strategy and platform for minimally-invasive treatment of liver cancer” (Drexel University, priority 2007, published 2008).

Conditions: in the body

Question: With O=c1[nH]cc(F)c(=O)[nH]1 [5 fluorouracil] as the compound, how does the half life read?
Answer: The half life was “less than 5 min”.
